Experiments:
[1] = tested on: cystic fibrosis patients heterozygous for the F508del mutation and a CFTR residual function mutation; experiment: Second clinical trial: eight-week, randomized, double-blind, ivacaftor-controlled, parallel-group study in 150 CF patients; format: in vivo, human; conditions: active comparator treatment period
Method: A second clinical trial was conducted with 150 cystic fibrosis patients aged 12 years and older Who were heterozygous for the F508del mutation and a CFTR residual function mutation. This trial was an eight-week, randomized, double-blind, ivacaftor-controlled, parallel-group study in CF patients. Patients were randomized 1:1 to receive tezacaftor/ivacaftor or ivacaftor following a four-week run in of ivacaftor. The mean ppFEV1 at baseline was 64.3%. The treatment difference between tezacaftor/ivacaftor and ivacaftor-treated patients for absolute change in ppFEV1 (primary endpoint) through Week 8 in the active comparator treatment period was 0.3 percentage points.
Results for tezacaftor/ivacaftor- and ivacaftor-treated patients were similar for absolute change in ppFEV1, relative change in ppFEV1 and CFQ-R Respiratory Domain Score. In the active comparator treatment period, the mean absolute change in ppFEV 1 was 0.5% in the tezacaftor/ivacaftor group and 0.2% in the ivacaftor group; the mean relative change in ppFEV1 was 1.3% in the tezacaftor/ivacaftor group and 0.5% in the ivacaftor group; and the mean absolute change in the pooled CFQ-R respiratory domain score was 0.7 points in the tezacaftor/ivacaftor group and −2.1 points in the ivacaftor group. There was a reduction in sweat chloride in tezacaftor/ivacaftor-treated patients compared to the ivacaftor group (−5.8 mmol/L).

[2] = tested on: cystic fibrosis patients with splice and missense mutations; experiment: Clinical trial in 248 cystic fibrosis patients with splice and missense (residual function) mutations: placebo, Compound II alone, Compound I and Compound II; format: in vivo, human; conditions: 100 mg Compound I every 24 hours, 150 mg Compound II every 12 hours
Method: A clinical trial was conducted with 248 cystic fibrosis patients with splice and missense mutations. Mutations were selected for the study based on the clinical phenotype (pancreatic sufficiency), biomarker data (sweat chloride), and in vitro responsiveness to tezacaftor/ivacaftor. The patients were assigned to one of three treatment groups: placebo, Compound II alone, and Compound I and Compound II. […] As shown in.

CC(C)(C)c1cc(C(C)(C)C)c(NC(=O)c2c[nH]c3ccccc3c2=O)cc1O [Compound II, N-(2,4-di-tert-butyl-5-hydroxyphenyl)-4-oxo-1,4-dihydroquinoline-3-carboxamide]
mean absolute change in the pooled CFQ-R respiratory domain score [1]: −2.1 points
mean relative change in ppFEV1 [1]: 0.5%
mean absolute change in ppFEV1 ([1]; after four-week run in of ivacaftor): 0.2%
increase in CFQ-R score ([2]; after 8 weeks of treatment): 9.7 points
increase in ppFEV1 (percent predicted forced expiratory volume in one second) ([2]; average change from baseline after 4 and 8 weeks of treatment): 4.7 percentage points
